Measured values published in ChEMBL document CHEMBL5728637, “Pyrazolopyrimidine derivatives, preparation method thereof, and pharmaceutical composition for use in preventing or treating cancer, autoimmune disease and brain disease containing the same as an active ingredient” (2021).

Molecular target: Tyrosine-protein kinase BTK (Homo sapiens, UniProt Q06187)
Assay: Inhibitory Assay: BTK enzyme evaluation with each compound of examples of the invention was performed by using BTK enzyme inhibition diagnosis kit (Cisbio, Codolet, France). ATP (adenosine triphosphate), BTK, peptide (biotin-Aca-[…]-NH2) and each compound of examples of the invention were mixed, followed by reaction for 30 minutes. Then, EDTA (ethylenediaminetetraacetic acid) was added thereto in order to terminate the reaction. At this time, the EDTA solution contained curopium-containing antibody (antiphosphoresidue antibody) and straptavidin-XL665 (SA-XL665, Cisbio). After incubation for 1 hour, fluorescence was measured. The emission values of 665 nm and 620 nm excited at 337 nm were measured with Envision reader.

Tyrosine-protein kinase BTK, sequence (Q06187 whole entry): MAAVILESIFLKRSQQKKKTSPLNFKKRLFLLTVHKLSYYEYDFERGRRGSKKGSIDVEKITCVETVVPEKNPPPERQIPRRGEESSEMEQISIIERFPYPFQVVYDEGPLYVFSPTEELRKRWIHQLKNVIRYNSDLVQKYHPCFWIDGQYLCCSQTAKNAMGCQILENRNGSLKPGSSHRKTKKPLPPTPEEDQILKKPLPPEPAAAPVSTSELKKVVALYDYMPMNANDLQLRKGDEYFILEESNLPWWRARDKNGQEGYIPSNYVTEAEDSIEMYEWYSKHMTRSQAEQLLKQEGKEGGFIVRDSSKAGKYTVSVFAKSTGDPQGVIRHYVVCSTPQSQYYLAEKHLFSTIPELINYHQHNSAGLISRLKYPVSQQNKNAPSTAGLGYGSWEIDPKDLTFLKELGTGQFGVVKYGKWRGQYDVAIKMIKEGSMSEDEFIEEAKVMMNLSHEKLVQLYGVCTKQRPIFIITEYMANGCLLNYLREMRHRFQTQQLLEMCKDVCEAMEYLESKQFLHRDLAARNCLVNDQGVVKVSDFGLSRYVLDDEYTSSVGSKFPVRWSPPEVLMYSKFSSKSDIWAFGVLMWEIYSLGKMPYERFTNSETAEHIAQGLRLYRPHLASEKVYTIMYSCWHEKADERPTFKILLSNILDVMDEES

IC50 [nM]	SMILES
26.7	Cc1ccc(NC(=O)Nc2cccc(C(F)(F)F)c2)cc1Nc1nn(C)c2nc(Nc3ccc4c(c3)CNCC4)ncc12
0.67	Cn1nc(Nc2c(Cl)cccc2Cl)c2cnc(Nc3ccc4c(c3)CCNC4)nc21
0.6	Cc1cccc(C)c1Nc1nn(C)c2nc(Nc3ccc4c(c3)CNCC4)ncc12
0.3	Cc1cccc(C)c1Nc1n[nH]c2nc(Nc3ccc4c(c3)CNCC4)ncc12
